The results in this text go back to article PMC8667043, “First-in-Class Inhibitors of the Ribosomal Oxygenase MINA53” (Journal of Medicinal Chemistry, 2021).

SMILES strings stand for the structures. A value given as a limit tells only on which side of the number the result lay.

For assay [1], the target named is T1, KDM4D (Homo sapiens, UniProt Q6B0I6).
T1 construct: (M1-G373); His6 (N); made in house; host or cells: E. coli
T1 sequence (Q6B0I6 1-373): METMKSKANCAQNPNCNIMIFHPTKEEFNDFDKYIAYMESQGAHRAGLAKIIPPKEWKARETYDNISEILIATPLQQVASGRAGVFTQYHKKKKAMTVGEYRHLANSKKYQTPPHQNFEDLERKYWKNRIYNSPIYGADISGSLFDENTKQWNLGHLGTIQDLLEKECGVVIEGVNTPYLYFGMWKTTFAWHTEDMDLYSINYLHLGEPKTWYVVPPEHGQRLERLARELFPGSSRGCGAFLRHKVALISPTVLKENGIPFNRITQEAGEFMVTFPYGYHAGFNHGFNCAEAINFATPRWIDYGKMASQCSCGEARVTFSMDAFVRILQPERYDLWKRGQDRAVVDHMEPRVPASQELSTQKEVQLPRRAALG
The assay can be described thus: AlphaScreen KDM inhibition assay. Type of assay: biochemical. The conditions noted are these: read-out: IC50 KDM4D (2.0 nM), enzyme 2.0 nM, means ± SD.

Assay [2] has as its target T2, NO66 (Homo sapiens, UniProt Q9H6W3).
T2 construct: histidine tag (TEV-cleavable) (cleaved yes); made in house; host or cells: E. coli BL21(DE3)-R3-pRARE2
T2 sequence (Q9H6W3 183-641): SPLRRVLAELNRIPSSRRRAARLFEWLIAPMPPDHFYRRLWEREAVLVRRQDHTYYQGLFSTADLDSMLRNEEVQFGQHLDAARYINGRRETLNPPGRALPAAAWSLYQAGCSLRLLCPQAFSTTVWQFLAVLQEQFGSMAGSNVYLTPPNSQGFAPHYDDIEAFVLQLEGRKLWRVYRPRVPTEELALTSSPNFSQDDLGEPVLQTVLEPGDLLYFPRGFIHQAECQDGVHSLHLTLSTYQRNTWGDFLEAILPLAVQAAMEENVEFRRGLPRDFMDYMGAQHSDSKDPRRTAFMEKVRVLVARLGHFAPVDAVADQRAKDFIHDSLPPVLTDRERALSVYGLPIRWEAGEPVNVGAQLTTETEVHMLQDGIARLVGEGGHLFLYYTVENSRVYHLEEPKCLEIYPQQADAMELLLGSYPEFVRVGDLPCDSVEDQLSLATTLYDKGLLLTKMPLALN
Kind of assay: NO66 MS (RapidFire) hydroxylation inhibition assay, Rpl8 peptide. Type of assay: biochemical. The conditions noted are these: for IC50: IC50 NO66 (300 nM), MS based, enzyme 300 nM, means ± SD of at least three experiments.

Assay [3] concerns the target T3, KDM3B (Homo sapiens, UniProt Q7LBC6).
T3 construct: (L882- S1761); His6 (N); made in house; host or cells: insect cells
T3 sequence (Q7LBC6 882-1761): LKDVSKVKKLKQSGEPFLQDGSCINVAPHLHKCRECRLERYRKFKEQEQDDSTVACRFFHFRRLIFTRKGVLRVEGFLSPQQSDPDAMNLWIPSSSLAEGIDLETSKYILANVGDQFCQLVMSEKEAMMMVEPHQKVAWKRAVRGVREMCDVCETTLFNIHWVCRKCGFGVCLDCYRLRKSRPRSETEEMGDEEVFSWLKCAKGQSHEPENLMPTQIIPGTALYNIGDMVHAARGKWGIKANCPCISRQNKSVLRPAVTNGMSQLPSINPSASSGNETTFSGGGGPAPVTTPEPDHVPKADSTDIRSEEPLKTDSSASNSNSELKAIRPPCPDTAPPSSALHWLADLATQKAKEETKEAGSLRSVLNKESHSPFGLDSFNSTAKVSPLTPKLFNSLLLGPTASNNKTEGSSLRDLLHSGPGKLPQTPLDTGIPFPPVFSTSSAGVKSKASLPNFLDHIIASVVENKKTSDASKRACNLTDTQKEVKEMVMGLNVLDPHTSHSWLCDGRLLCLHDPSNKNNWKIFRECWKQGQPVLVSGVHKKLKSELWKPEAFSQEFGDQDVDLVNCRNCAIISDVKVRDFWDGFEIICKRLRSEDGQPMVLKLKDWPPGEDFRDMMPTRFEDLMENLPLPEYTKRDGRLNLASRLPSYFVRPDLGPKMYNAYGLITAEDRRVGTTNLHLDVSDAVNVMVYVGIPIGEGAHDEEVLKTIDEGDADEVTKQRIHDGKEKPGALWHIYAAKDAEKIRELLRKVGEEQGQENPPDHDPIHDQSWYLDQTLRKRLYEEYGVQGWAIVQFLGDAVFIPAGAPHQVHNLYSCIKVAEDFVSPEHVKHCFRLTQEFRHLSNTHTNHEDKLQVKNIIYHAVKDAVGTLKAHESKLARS
Kind of assay: AlphaScreen KDM inhibition assay. Format: biochemical. The conditions noted are these: read-out: IC50 KDM3B (0.4 nM), enzyme 0.4 nM, means ± SD.

The target in assay [4] is T4, KDM4A (Homo sapiens, UniProt O75164).
T4 construct: (M1- N-terminal R1641) His6-tagged N-terminal His6-tagged L359); made in house; host or cells: E. coli
T4 sequence (O75164 1-359): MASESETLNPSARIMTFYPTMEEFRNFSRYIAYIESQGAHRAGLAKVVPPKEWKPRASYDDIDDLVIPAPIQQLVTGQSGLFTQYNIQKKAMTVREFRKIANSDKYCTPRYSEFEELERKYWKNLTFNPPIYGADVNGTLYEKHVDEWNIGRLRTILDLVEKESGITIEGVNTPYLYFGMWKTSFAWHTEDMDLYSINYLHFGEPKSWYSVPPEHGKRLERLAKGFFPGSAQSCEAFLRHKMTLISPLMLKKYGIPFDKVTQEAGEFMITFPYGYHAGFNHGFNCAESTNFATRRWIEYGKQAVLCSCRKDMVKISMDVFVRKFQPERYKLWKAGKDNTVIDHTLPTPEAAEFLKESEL
Kind of assay: AlphaScreen KDM inhibition assay. The conditions noted are these: read-out: IC50 KDM4A (4 nM), enzyme 4 nM, means ± SD. Format: biochemical.

The subject of assay [5] is U-87MG cells. Kind of assay: Western blot of H2AX serine 139 phosphorylation (γ-H2AX). Type of assay: cell-based, human. Also on record: dose or concentration left out as unconfirmed. Conditions: time-dependent (2, 4, 8 h). As to the method:
Proteins were transferred onto nitrocellulose or PVDF membranes and incubated with rabbit γ-H2AX (#9718, Cell Signaling Technologies, MA) anti-GAPDH (Sc47724, Santa Cruz Biotechnology, Santa Cruz, CA), rabbit anti-RPL27A (Abcam, ab74731), goat anti-RPL8 (Abcam, ab63941), horseradish peroxidase (HRP)-conjugated anti-HA (Roche, 12013819001), and HRP-conjugated anti-β-actin (Abcam, ab-49900).
Figure S19. Western blot analysis and relative densitometric analysis of the phosphorylated form of H2AX (ser139) on U-8 7MG glioma cells exposed for the indicated times to 1 (negative control), […]
Doxorubicin was used as a positive control (0.5 μM, 8 h). GAPDH expression was used as a control loading. Results are express ed as f old changes over […]

With `CCCCSc1ncc(C(=O)O)c(=O)[nH]1` [compound 3, 2-(Butylthio)-3,4-dihydro-4-oxopyrimidine-5-carboxylic Acid], the IC50 in assay [1] was 15.5 ± 0.8 µM; in assay [2], 163 ± 6 µM; in assay [3], 62.1 ± 3 µM; in assay [4], 9.1 ± 0.6 µM.
Turning to `CCCCCSc1ncc(C(=O)O)c(=O)[nH]1` [compound 4, 2-(Pentylthio)-3,4-dihydro-4-oxopyrimidine-5-carboxylic Acid], the IC50 in assay [1] came out at 27.5 ± 2 µM; in assay [2], 81.2 ± 4 µM; in assay [3], 51.2 ± 3 µM; in assay [4] it was 16.5 ± 1.8 µM.
On to `O=C(O)c1c[nH]c(=S)[nH]c1=O` [compound 1], for which the IC50 in assay [1] was > 100 µM; in assay [2], > 200 µM; in assay [3], 53.2 ± 3 µM; in assay [4], > 100 µM. Further, the “γ-H2AX (H2AX serine 139 phosphorylation)” value in assay [5] is reported as “not increased”.
For the molecule `O=C(O)c1cnc(SCC2CCCCC2)[nH]c1=O` [compound 6, 2-((Cyclohexylmethyl)thio)-3,4-dihydro-4-oxopyrimidine-5-carboxylic Acid], the IC50 amounted to 30.3 ± 3 µM in assay [1], 182 ± 8 µM in assay [2], 47.6 ± 4 µM in assay [3] and 20.8 ± 2 µM in assay [4].
In the case of `O=C(O)c1cnc(SCCc2ccccc2)[nH]c1=O` [compound 9, 2-(Phenethylthio)-3,4-dihydro-4-oxopyrimidine-5-carboxylic Acid], the IC50 turned out to be 30.8 ± 2.2 µM in assay [1], 71.7 ± 4 µM in assay [2], 54.2 ± 2 µM in assay [3] and 19 ± 1.2 µM in assay [4]. Besides, the “γ-H2AX (H2AX serine 139 phosphorylation)” value in assay [5] is given as “strong γ-H2AX increase”.
For `O=C(O)/C=C\Sc1ncc(C(=O)O)c(=O)[nH]1` [compound 13, (Z)-2-((2-carboxyvinyl)thio)-3,4-dihydro-4-oxopyrimidine-5-carboxylic Acid], the IC50 in assay [1] turned out to be 123 ± 8 µM; in assay [2], 100 ± 4 µM; in assay [3], 63.7 ± 4 µM; in assay [4], 64.1 ± 4 µM.
The corresponding values for `O=C(O)c1cnc(SCc2ccccc2)[nH]c1=O` [compound 7, 2-(Benzylthio)-3,4-dihydro-4-oxopyrimidine-5-carboxylic Acid] are 34.7 ± 1.6 µM, 48 ± 3 µM, > 100 µM and 24.6 ± 1.8 µM.
Take `O=C(O)c1cnc(SCCCCc2ccccc2)[nH]c1=O` [compound 11, 2-((4-Phenylbutyl)thio)-3,4-dihydro-4-oxopyrimidine-5-carboxylic Acid]: the IC50 in assay [1] stood at 26 ± 1.5 µM; in assay [2], 22.9 ± 2 µM; in assay [3], 65.9 ± 4.5 µM; in assay [4], 14.3 ± 1 µM.
Consider `CCCCCCCCCSc1ncc(C(=O)O)c(=O)[nH]1` [compound 5, 2-(Nonylthio)-3,4-dihydro-4-oxopyrimidine-5-carboxylic Acid], for which the IC50 in assay [1] is 19.8 ± 0.9 µM; in assay [2] it was > 200 µM; in assay [3] it was 66.8 ± 4 µM; in assay [4] it was 13.4 ± 1 µM.
For the molecule `CCOC(=O)/C=C\Sc1ncc(C(=O)O)c(=O)[nH]1` [compound 12, (Z)-2-((3-Ethoxy-3-oxoprop-1-en-1-yl)thio)-3,4-dihydro-4-oxopyrimidine-5-carboxylic Acid], the IC50 in assay [1] stood at 22 ± 1.2 µM; in assay [2], 80.2 ± 5 µM; in assay [3], 26.7 ± 2 µM; in assay [4] it was 11.2 ± 0.9 µM.
Regarding `O=C(CSc1ncc(C(=O)O)c(=O)[nH]1)c1ccccc1` [compound 8, 2-((2-Oxo-2-phenylethyl)thio)-3,4-dihydro-4-oxopyrimidine-5-carboxylic Acid], the 50% inhibitory concentration (IC50) is 26.7 ± 1.9 µM in assay [1], 23.5 ± 2 µM in assay [2], 56.2 ± 4 µM in assay [3] and 32.8 ± 2.1 µM in assay [4]. Also, the “increase in potency for NO66 (compare 8 with 9)” value in assay [2] (relative to 9) is reported as > 2 fold.
With `CSc1ncc(C(=O)O)c(=O)[nH]1` [compound 2, 2-(Methylthio)-3,4-dihydro-4-oxopyrimidine-5-carboxylic Acid], the IC50 in assay [1] is 31.9 ± 1 µM; in assay [2], 40.2 ± 2 µM; in assay [3], 106 ± 6 µM; in assay [4] it was 17.6 ± 2 µM.
On to `O=C(O)c1cnc(SCCCc2ccccc2)[nH]c1=O` [compound 10, 2-((3-Phenylpropyl)thio)-3,4-dihydro-4-oxopyrimidine-5-carboxylic Acid], for which the IC50 in assay [1] worked out at 59.1 ± 3.9 µM; in assay [2], 36.9 ± 2 µM; in assay [3] it was 57.5 ± 3.8 µM; in assay [4], 74.2 ± 4.8 µM. Moreover, in assay [5], the “γ-H2AX (H2AX serine 139 phosphorylation)” value was “strong γ-H2AX increase”.
